According to patent US6677358B1, “NIDDM regimen” (Novo Nordisk A/S, priority 1997, dated 2004):
Where “and” joins values, the source holds several entries; their conditions need not be identical. Equal values may be shown once. Read-outs that look alike come from different tables or passages of the source. Each block holds one compound with its values, some of them ahead of it.

Assays:
[1] = Half-life (duration of action) of repaglinide; details: in vivo
[2] = test system: NIDDM patients inadequately controlled on metformin alone; details: for Change in FPG / Change in HbA1c (%) / Change in C peptide / Change in fasting insulin (mU/l): mean ± SEM; for Change in FPG / Change in HbA1c (%): baseline to end of 3-month maintenance period; for Change in C peptide / Change in fasting insulin (mU/l): baseline to end of maintenance treatment period
[3] = test system: patients with type 2 diabetes; assay: Flexible meal-related dosing study of repaglinide (mixed vs fixed regimen), open-label parallel group; assay type: in vivo, human; details: for Mean fructosamine: 1 mg preprandially, end of 21 days
Description: In a single-centre, randomised, open-label, parallel group comparison study it was investigated whether repaglinide given preprandially will maintain glycaemic control in patients who skip a meal (lunch) or have an extra meal (bedtime snack) [mixed regimen] as compared with those who have three regular meals [fixed regimen].
A total of 25 diet-treated patients with type 2 diabetes were enrolled (18 men and 7 women) and given a fixed 1 mg dose of repaglinide preprandially (therapeutic dose range: 0.5-4 mg). After one week of stabilisation patients were randomised to the mixed or fixed regimen for a period of 21 days if blood glucose was >140 mg/dl.

NIDDM patients = assay: Repaglinide 3 times daily before meals (REP3) vs twice daily (REP2), 4-week double-blind study; details: for Fasting blood glucose (mean ±SEM) after 4 weeks: doubled after 2 weeks

Compound: CCOc1cc(CC(=O)N[C@@H](CC(C)C)c2ccccc2N2CCCCC2)ccc1C(=O)O [Repaglinide, (S)-(+)-2-ethoxy-4-[2-[[3-methyl-1-[2-(1-piperidinyl)phenyl]butyl]amino]-2-oxo-ethyl]benzoic acid]
- T½ (short duration of action) [1]: one
- Frequency of drug-related adverse events ([2]; human, in vivo): 25.0%
- Gastrointestinal side effects ([2]; human, in vivo): 3.6%
- Patients reporting hypoglycemic episodes (%) ([2]; human, in vivo): 17.9%
- Patients reporting hypoglycemic episodes (number) ([2]; human, in vivo): 3 patients
- Change in mean body weight during the study ([2]; in vivo): +2.98±0.49 kg
- Change in FPG [2]: 0.49 mmol/L
- Change in HbA1c (%) [2]: −0.38%
- Change in FPG ([2]; listed as REP): 0.49 mmol/L
- Change in HbA1c (%) ([2]; listed as REP): −0.38%
- Change in C peptide [2]: 0.18 nmol/L
- Change in fasting insulin (mU/l) [2]: 4.04 ± 1.56 mU/l
- Blood glucose AUC over 24 hours, difference between fixed and mixed groups ([3]; 37-point blood glucose profile): not statistically significant
- Hypoglycaemic episodes or serious adverse events ([3]; both regimens): no hypoglycaemic episodes or serious adverse events were reported
- Mean fructosamine ([3]; fixed regimen (three regular meals), decreased from 3.10, p<0.05): 2.68 mmol/L
- Tolerability of dose regimens ([3]; in vivo): well tolerated
- Blood glucose levels when lunch was omitted ([3]; mixed regimen): remained stable until next meal
- Mean fructosamine ([3]; mixed regimen (skipped lunch or extra bedtime snack), decreased from 3.37, p<0.05): 2.85 mmol/L
- Mean fasting blood glucose (FBG) ([3]; value decreased to, both groups (fixed and mixed regimen)): approximately 120 mg/dl
- Blood glucose (AUC0-24 h) after 4 weeks (NIDDM patients; REP2 (twice daily)): 8.91 mmol/L
- Increase in normed AUC0-24 h for plasma insulin (NIDDM patients; REP2, after 4 weeks): 20%
- Fasting blood glucose (mean ±SEM) after 4 weeks (NIDDM patients; REP2: 0.5 mg before breakfast + 0.25 mg before dinner, baseline 11.3±0.73, 11.2): 9.6 mmol/L and 9.6 ± 0.7 mmol/L
- HbA1c (±SEM) after 4 weeks (NIDDM patients; REP2, baseline 7.12±0.24, decrease non-significant): 6.8% and 6.84±0.34%
- Blood glucose (AUC0-24 h) after 4 weeks (NIDDM patients; REP3 (three times daily before meals), P<0.05 vs REP2): 7.00 mmol/L
- Increase in normed AUC0-24 h for plasma insulin (NIDDM patients; REP3, after 4 weeks): 35-40%
- Fasting blood glucose (mean ±SEM) after 4 weeks (NIDDM patients; REP3: 0.25 mg, before each of three main meals, baseline 11.1±1.24, 11.2): 8.4 mmol/L and 8.4 ± 1.01 mmol/L
- HbA1c (±SEM) after 4 weeks (NIDDM patients; REP3, baseline 7.51±0.78, P=0.004): 6.5% and 6.51±0.64%
- Postprandial blood glucose, lower with REP3 than with REP2 (NIDDM patients; after 4 weeks, P<0.05): about 2.5 mmol/l
- Normed AUC0-24 h for plasma C-peptide (NIDDM patients; both groups (REP2, REP3), after 4 weeks): increased in both groups
- Plasma insulin before the next meal (NIDDM patients; both treatment groups): decreased to pre-treatment levels
- Plasma insulin during the night in comparison with pre-treatment levels (NIDDM patients; both treatment groups): no increase
- Non-serious adverse events (NIDDM patients; either treatment group): mild hypoglycemic episodes and one case of influenza
- Serious adverse events (NIDDM patients; either treatment group): No serious adverse events

- Patients reporting hypoglycemic episodes (number) ([2]; in vivo): none
Compound: CN(C)C(=N)N=C(N)N [Metformin, metformin]
- Change in mean body weight during the study ([2]; in vivo): -0.86 ± 0.51 kg
- Frequency of drug-related adverse events ([2]; in vivo): 14.8%
- Gastrointestinal side effects ([2]; in vivo): 7.4%
- Change in FPG [2]: -0.25 mmol/L
- Change in HbA1c (%) [2]: −0.33%
- Change in FPG ([2]; listed as MET): -0.25 mmol/L
- Change in HbA1c (%) ([2]; listed as MET): −0.33%
- Change in C peptide [2]: 0.02 nmol/L
- Change in fasting insulin (mU/l) [2]: 1.05 ± 1.60 mU/l
